In paper PMC9229919, “4-Aminoquinoline-Based Adamantanes as Potential Anticholinesterase Agents in Symptomatic Treatment of Alzheimer’s Disease” (Pharmaceutics, 2022):
Where two headings read alike, the source gives them in different places.

Assays:
[1] = Ferric reducing antioxidant power (FRAP) assay; details: mean ± standard error of three experiments;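 also: expressed as µM Fe2+ equivalents from an FeSO4·7H2O standard curve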
How it was run: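 Ferric-TPTZ reduction measured by absorbance at 593 nm after 60 min at 37 °C in pH 3.6 acetate-buffered TPTZ/FeCl3 reagent, with test compounds at 10 and 100 µM. FRAP values calculated from an Fe2SO4·7H2O standard curve. Data from three independent experiments.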

[2] = molecular target: T1, recombinant human AChE (Homo sapiens, UniProt P22303); test: biochemical; assay type: biochemical; details: for IS: IS = Ki(BChE)/Ki(AChE), IS > 1 selective to AChE
T1 construct: gift of Dr Florian Nachon (Armed Forces Biomedical Research Institute, Brétigny-sur-Orge, France)
How it was run: (§1)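 Modified Ellman assay with acetylthiocholine and DTNB in 0.1 M sodium phosphate pH 7.4 (enzymes diluted with 0.1% BSA), ≤0.2% DMSO, 25 °C. At least three inhibitor concentrations per substrate level; Ki,app from Hunter–Downs equation, Ki from y-intercept and inhibition type from Ki,app vs [S].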

[3] = molecular target: T2, purified human BChE (Homo sapiens, UniProt P06276); test: biochemical; assay type: biochemical
T2 construct: possibly also a gift of Dr Florian Nachon (the sentence is ambiguous)
How it was run: as §1

[4] = Reverse-phase thin-layer chromatographic lipophilicity (RF, RM0); assay type: physicochemical; details: for RM0: intercept of RM = RM0 + bC; for b: slope of RM = RM0 + bC; for RF, Methanol/Water/Hydrochloric acid (conc.), mobile phase I / RF, Dioxane/Water/Hydrochloric acid (conc.), mobile phase II / RF, Methanol/Water/Hydrochloric acid (conc.), mobile phase II / RF, Acetone/Water/Hydrochloric acid (conc.), mobile phase III / RF, Dioxane/Water/Hydrochloric acid (conc.), mobile phase III / RF, Methanol/Water/Hydrochloric acid (conc.), mobile phase III / RF, Dioxane/Water/Hydrochloric acid (conc.), mobile phase IV / RF, Acetone/Water/Hydrochloric acid (conc.), mobile phase IV / RF, Methanol/Water/Hydrochloric acid (conc.), mobile phase IV / RF, Acetone/Water/Hydrochloric acid (conc.), mobile phase IX / RF, Methanol/Water/Hydrochloric acid (conc.), mobile phase IX / RF, Dioxane/Water/Hydrochloric acid (conc.), mobile phase V / RF, Acetone/Water/Hydrochloric acid (conc.), mobile phase V / RF, Methanol/Water/Hydrochloric acid (conc.), mobile phase V / RF, Dioxane/Water/Hydrochloric acid (conc.), mobile phase VI / RF, Acetone/Water/Hydrochloric acid (conc.), mobile phase VI / RF, Methanol/Water/Hydrochloric acid (conc.), mobile phase VI / RF, Acetone/Water/Hydrochloric acid (conc.), mobile phase VII / RF, Methanol/Water/Hydrochloric acid (conc.), mobile phase VII / RF, Acetone/Water/Hydrochloric acid (conc.), mobile phase VIII / RF, Methanol/Water/Hydrochloric acid (conc.), mobile phase VIII: RP-18 silica; for RF, Methanol/Water/Hydrochloric acid (conc.), mobile phase I: I = 90%MeOH/5%H2O/5%HCl; for RF, Dioxane/Water/Hydrochloric acid (conc.), mobile phase II: II = 80%Dioxane/15%H2O/5%HCl; for RF, Methanol/Water/Hydrochloric acid (conc.), mobile phase II: II = 85%MeOH/10%H2O/5%HCl; for RF, Acetone/Water/Hydrochloric acid (conc.), mobile phase III: III = 70%AC/25%H2O/5%HCl; for RF, Dioxane/Water/Hydrochloric acid (conc.), mobile phase III: III = 70%Dioxane/25%H2O/5%HCl; for RF, Methanol/Water/Hydrochloric acid (conc.), mobile phase III: III = 80%MeOH/15%H2O/5%HCl; for RF, Dioxane/Water/Hydrochloric acid (conc.), mobile phase IV: IV = 60%Dioxane/35%H2O/5%HCl; for RF, Acetone/Water/Hydrochloric acid (conc.), mobile phase IV: IV = 65%AC/30%H2O/5%HCl; for RF, Methanol/Water/Hydrochloric acid (conc.), mobile phase IV: IV = 75%MeOH/20%H2O/5%HCl; for RF, Acetone/Water/Hydrochloric acid (conc.), mobile phase IX: IX = 40%AC/55%H2O/5%HCl; for RF, Methanol/Water/Hydrochloric acid (conc.), mobile phase IX: IX = 50%MeOH/45%H2O/5%HCl; for RF, Dioxane/Water/Hydrochloric acid (conc.), mobile phase V: V = 50%Dioxane/45%H2O/5%HCl; for RF, Acetone/Water/Hydrochloric acid (conc.), mobile phase V: V = 60%AC/35%H2O/5%HCl; for RF, Methanol/Water/Hydrochloric acid (conc.), mobile phase V: V = 70%MeOH/25%H2O/5%HCl; for RF, Dioxane/Water/Hydrochloric acid (conc.), mobile phase VI: VI = 40%Dioxane/55%H2O/5%HCl; for RF, Acetone/Water/Hydrochloric acid (conc.), mobile phase VI: VI = 55%AC/40%H2O/5%HCl; for RF, Methanol/Water/Hydrochloric acid (conc.), mobile phase VI: VI = 65%MeOH/30%H2O/5%HCl; for RF, Acetone/Water/Hydrochloric acid (conc.), mobile phase VII: VII = 50%AC/45%H2O/5%HCl; for RF, Methanol/Water/Hydrochloric acid (conc.), mobile phase VII: VII = 60%MeOH/35%H2O/5%HCl; for RF, Acetone/Water/Hydrochloric acid (conc.), mobile phase VIII: VIII = 45%AC/50%H2O/5%HCl; for RF, Methanol/Water/Hydrochloric acid (conc.), mobile phase VIII: VIII = 55%MeOH/40%H2O/5%HCl
How it was run: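 Lipophilicity from RP-TLC retention at 22±2 °C over a 4.5 cm development distance. Eluents: organic modifier (methanol, acetone or dioxane), water and hydrochloric acid, methanol stepped by 10%. RM0 obtained from RF.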

[5] = log (Ki/µM AChE), read-out: Y Measured 1 log(ki)Ache (converted)
[6] = ± standard error, 25 °C, ATCh substrate, read-out: Ki AChE
[7] = logarithm of Ki in µM, BChE, dependent variable of the QSAR model, read-out: Y Measured 2 log(ki)Bche, log (Ki/µM BChE) (converted)
[8] = ± standard error, 25 °C, ATCh substrate, read-out: Ki BChE
[9] = Acetone/Water/Hydrochloric acid (conc.)
[10] = Dioxane/Water/Hydrochloric acid (conc.)
[11] = Methanol/Water/Hydrochloric acid (conc.)

T2 sequence (P06276 29-602): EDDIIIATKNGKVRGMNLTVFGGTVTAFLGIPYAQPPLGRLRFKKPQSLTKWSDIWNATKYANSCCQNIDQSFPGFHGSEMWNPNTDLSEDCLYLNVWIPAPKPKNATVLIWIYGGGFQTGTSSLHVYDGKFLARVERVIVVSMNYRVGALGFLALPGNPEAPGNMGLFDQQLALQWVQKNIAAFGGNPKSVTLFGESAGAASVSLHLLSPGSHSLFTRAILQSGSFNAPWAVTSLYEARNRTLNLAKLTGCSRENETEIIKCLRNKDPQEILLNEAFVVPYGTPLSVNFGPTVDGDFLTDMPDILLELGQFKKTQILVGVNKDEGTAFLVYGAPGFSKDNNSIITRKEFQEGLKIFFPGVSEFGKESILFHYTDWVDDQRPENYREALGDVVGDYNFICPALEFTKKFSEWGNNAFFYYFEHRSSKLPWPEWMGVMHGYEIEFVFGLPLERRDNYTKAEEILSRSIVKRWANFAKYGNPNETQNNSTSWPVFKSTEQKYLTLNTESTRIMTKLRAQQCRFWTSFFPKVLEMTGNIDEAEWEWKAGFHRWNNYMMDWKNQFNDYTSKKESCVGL
T1 sequence (P22303 32-614): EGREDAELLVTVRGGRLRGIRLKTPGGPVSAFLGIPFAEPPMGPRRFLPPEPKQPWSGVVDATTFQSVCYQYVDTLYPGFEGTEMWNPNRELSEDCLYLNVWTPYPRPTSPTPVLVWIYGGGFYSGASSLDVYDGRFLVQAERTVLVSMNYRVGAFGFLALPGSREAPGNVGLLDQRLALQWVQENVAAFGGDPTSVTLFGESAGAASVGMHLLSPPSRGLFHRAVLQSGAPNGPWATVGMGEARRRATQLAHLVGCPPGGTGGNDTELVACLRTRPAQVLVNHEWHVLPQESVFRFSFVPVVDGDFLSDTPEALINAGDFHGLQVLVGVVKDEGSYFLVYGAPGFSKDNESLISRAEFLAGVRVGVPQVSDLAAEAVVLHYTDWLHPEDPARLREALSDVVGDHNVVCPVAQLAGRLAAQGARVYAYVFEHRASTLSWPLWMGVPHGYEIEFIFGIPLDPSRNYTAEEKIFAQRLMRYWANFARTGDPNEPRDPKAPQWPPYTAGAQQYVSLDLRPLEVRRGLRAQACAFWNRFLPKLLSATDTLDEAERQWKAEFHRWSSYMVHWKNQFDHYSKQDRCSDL

Compound	FRAP ([1]; 10 µM compound) [µM]	FRAP ([1]; 100 µM compound) [µM]	Ki [2, 6] [µM]	Ki [3, 8] [µM]	RM0 [4, 9]	b [4, 9]	RM0 [4, 10]	b [4, 10]	RM0 [4, 11]	b [4, 11]	RF, Methanol/Water/Hydrochloric acid (conc.), mobile phase I [4]	RF, Dioxane/Water/Hydrochloric acid (conc.), mobile phase II [4]	RF, Methanol/Water/Hydrochloric acid (conc.), mobile phase II [4]	RF, Acetone/Water/Hydrochloric acid (conc.), mobile phase III [4]	RF, Dioxane/Water/Hydrochloric acid (conc.), mobile phase III [4]	RF, Methanol/Water/Hydrochloric acid (conc.), mobile phase III [4]	RF, Dioxane/Water/Hydrochloric acid (conc.), mobile phase IV [4]	RF, Acetone/Water/Hydrochloric acid (conc.), mobile phase IV [4]	RF, Methanol/Water/Hydrochloric acid (conc.), mobile phase IV [4]	RF, Acetone/Water/Hydrochloric acid (conc.), mobile phase IX [4]	further results
CC(CCNCC12CC3CC(CC(C3)C1)C2)Nc1ccnc2cc(C(F)(F)F)ccc12 (stereo not drawn) [Compound 13]	19 ± 7	64 ± 5	0.91 ± 0.05	1.8 ± 0.3	2.073	3.206	0.9361	1.847	2.626	3.42	0.72	0.73	0.66	0.56	0.7	0.5	0.7	0.52	0.49	0.1	Ki [2, 5]: 0.91 µM; Ki [3, 7]: 1.4 µM; RF, Methanol/Water/Hydrochloric acid (conc.), mobile phase IX [4]: 0.09; RF, Dioxane/Water/Hydrochloric acid (conc.), mobile phase V [4]: 0.5; RF, Acetone/Water/Hydrochloric acid (conc.), mobile phase V [4]: 0.4; RF, Methanol/Water/Hydrochloric acid (conc.), mobile phase V [4]: 0.42; RF, Dioxane/Water/Hydrochloric acid (conc.), mobile phase VI [4]: 0.33; RF, Acetone/Water/Hydrochloric acid (conc.), mobile phase VI [4]: 0.34; RF, Methanol/Water/Hydrochloric acid (conc.), mobile phase VI [4]: 0.34; RF, Acetone/Water/Hydrochloric acid (conc.), mobile phase VII [4]: 0.3; RF, Methanol/Water/Hydrochloric acid (conc.), mobile phase VII [4]: 0.22; RF, Acetone/Water/Hydrochloric acid (conc.), mobile phase VIII [4]: 0.23; RF, Methanol/Water/Hydrochloric acid (conc.), mobile phase VIII [4]: 0.14
CC(CCNCCC12CC3CC(CC(C3)C1)C2)Nc1ccnc2cc(Cl)ccc12 (stereo not drawn) [Compound 14]	7.6 ± 2.3	86 ± 8	1.9 ± 0.1	0.15 ± 0.01	2.236	3.396	1.306	2.3979	3.293	4.124	0.67	0.78	0.62	0.53	0.69	0.45	0.66	0.5	0.42	0.08	IS [2]: 0.1; preference for BChE ([3]; BChE over AChE): 10 times; RF, Methanol/Water/Hydrochloric acid (conc.), mobile phase IX [4]: 0.03; RF, Dioxane/Water/Hydrochloric acid (conc.), mobile phase V [4]: 0.45; RF, Acetone/Water/Hydrochloric acid (conc.), mobile phase V [4]: 0.38; RF, Methanol/Water/Hydrochloric acid (conc.), mobile phase V [4]: 0.34; RF, Dioxane/Water/Hydrochloric acid (conc.), mobile phase VI [4]: 0.27; RF, Acetone/Water/Hydrochloric acid (conc.), mobile phase VI [4]: 0.33; RF, Methanol/Water/Hydrochloric acid (conc.), mobile phase VI [4]: 0.25; RF, Acetone/Water/Hydrochloric acid (conc.), mobile phase VII [4]: 0.25; RF, Methanol/Water/Hydrochloric acid (conc.), mobile phase VII [4]: 0.16; RF, Acetone/Water/Hydrochloric acid (conc.), mobile phase VIII [4]: 0.21; RF, Methanol/Water/Hydrochloric acid (conc.), mobile phase VIII [4]: 0.1
CC(CCNCC12CC3CC(CC(C3)C1)C2)Nc1ccnc2ccccc12 (stereo not drawn) [Compound 15]	9.3 ± 2.2	224 ± 21	0.74 ± 0.03	0.65 ± 0.04	1.742	2.801	0.8903	1.797	2.31	3.062	0.71	0.74	0.67	0.6	0.7	0.54	0.7	0.55	0.51	0.15	IS [2]: 0.9; RF, Methanol/Water/Hydrochloric acid (conc.), mobile phase IX [4]: 0.11; RF, Dioxane/Water/Hydrochloric acid (conc.), mobile phase V [4]: 0.51; RF, Acetone/Water/Hydrochloric acid (conc.), mobile phase V [4]: 0.45; RF, Methanol/Water/Hydrochloric acid (conc.), mobile phase V [4]: 0.45; RF, Dioxane/Water/Hydrochloric acid (conc.), mobile phase VI [4]: 0.35; RF, Acetone/Water/Hydrochloric acid (conc.), mobile phase VI [4]: 0.4; RF, Methanol/Water/Hydrochloric acid (conc.), mobile phase VI [4]: 0.36; RF, Acetone/Water/Hydrochloric acid (conc.), mobile phase VII [4]: 0.35; RF, Methanol/Water/Hydrochloric acid (conc.), mobile phase VII [4]: 0.27; RF, Acetone/Water/Hydrochloric acid (conc.), mobile phase VIII [4]: 0.29; RF, Methanol/Water/Hydrochloric acid (conc.), mobile phase VIII [4]: 0.2
CC(CCNCCC12CC3CC(CC(C3)C1)C2)Nc1ccnc2ccccc12 (stereo not drawn) [Compound 16]	4.1 ± 0.4	46 ± 4	0.52 ± 0.02	0.38 ± 0.03	1.94	3.086	0.9042	1.814	2.5841	3.345	0.7	0.74	0.64	0.59	0.7	0.51	0.7	0.54	0.5	0.12	IS [2]: 0.7; Ki [2, 5]: 0.52 µM; Ki [3, 7]: 0.38 µM; RF, Methanol/Water/Hydrochloric acid (conc.), mobile phase IX [4]: 0.09; RF, Dioxane/Water/Hydrochloric acid (conc.), mobile phase V [4]: 0.5; RF, Acetone/Water/Hydrochloric acid (conc.), mobile phase V [4]: 0.44; RF, Methanol/Water/Hydrochloric acid (conc.), mobile phase V [4]: 0.42; RF, Dioxane/Water/Hydrochloric acid (conc.), mobile phase VI [4]: 0.35; RF, Acetone/Water/Hydrochloric acid (conc.), mobile phase VI [4]: 0.39; RF, Methanol/Water/Hydrochloric acid (conc.), mobile phase VI [4]: 0.31; RF, Acetone/Water/Hydrochloric acid (conc.), mobile phase VII [4]: 0.33; RF, Methanol/Water/Hydrochloric acid (conc.), mobile phase VII [4]: 0.21; RF, Acetone/Water/Hydrochloric acid (conc.), mobile phase VIII [4]: 0.26; RF, Methanol/Water/Hydrochloric acid (conc.), mobile phase VIII [4]: 0.15
